Reference: ChEMBL document CHEMBL4002627, “Quinolidene based monocarbonyl curcumin analogues as promising antimycobacterial agents: Synthesis and molecular docking study” (Bioorg Med Chem Lett, 2017)
Converted amounts (≈) assume the structure as drawn.

Experiments:
[1] = system: Mycobacterium tuberculosis; assay: Antimycobacterial activity against dormant state of Mycobacterium tuberculosis H37Ra by two fold dilution method; format: functional
[2] = system: Mycobacterium tuberculosis; assay: Antimycobacterial activity against dormant state of Mycobacterium tuberculosis H37Ra assessed as growth inhibition at 30 ug/ml after 12 days by XTT reduction menadione assay relative to control; format: functional; conditions: 288 h, read-out: GI
[3] = system: Mycobacterium tuberculosis; assay: Antimycobacterial activity against dormant state of Mycobacterium tuberculosis H37Ra assessed as growth inhibition at 10 ug/ml after 12 days by XTT reduction menadione assay relative to control; format: functional; conditions: 288 h, read-out: GI
[4] = system: Mycobacterium tuberculosis; assay: Antimycobacterial activity against dormant state of Mycobacterium tuberculosis H37Ra assessed as growth inhibition at 3 ug/ml after 12 days by XTT reduction menadione assay relative to control; format: functional; conditions: 288 h, read-out: GI
[5] = Cytotoxicity against human MCF7 cells assessed as growth inhibition at 30 ug/ml after 48 hrs by MTT assay relative to control; format: cell-based; conditions: read-out: GI
[6] = Cytotoxicity against human MCF7 cells assessed as growth inhibition at 10 ug/ml after 48 hrs by MTT assay relative to control; format: cell-based; conditions: read-out: GI
[7] = Cytotoxicity against human MCF7 cells assessed as growth inhibition at 3 ug/ml after 48 hrs by MTT assay relative to control; format: cell-based; conditions: read-out: GI
[8] = Cytotoxicity against human A549 cells assessed as growth inhibition at 30 ug/ml after 48 hrs by MTT assay relative to control; format: cell-based; conditions: read-out: GI
[9] = Cytotoxicity against human A549 cells assessed as growth inhibition at 10 ug/ml after 48 hrs by MTT assay relative to control; format: cell-based; conditions: read-out: GI
[10] = Cytotoxicity against human A549 cells assessed as growth inhibition at 3 ug/ml after 48 hrs by MTT assay relative to control; format: cell-based; conditions: read-out: GI
[11] = Cytotoxicity against human HCT116 cells assessed as growth inhibition at 30 ug/ml after 48 hrs by MTT assay relative to control; format: cell-based, HCT-116; conditions: read-out: GI
[12] = Cytotoxicity against human HCT116 cells assessed as growth inhibition at 10 ug/ml after 48 hrs by MTT assay relative to control; format: cell-based, HCT-116; conditions: read-out: GI
[13] = Cytotoxicity against human HCT116 cells assessed as growth inhibition at 3 ug/ml after 48 hrs by MTT assay relative to control; format: cell-based, HCT-116; conditions: read-out: GI
[14] = (§1) Cytotoxicity against human MCF7 cells assessed as growth inhibition after 48 hrs by MTT assay; format: cell-based; conditions: MCF7 cells
MCF7 = assay: as §1; format: cell-based; conditions: mcf7, 48 h
[15] = (§2) Cytotoxicity against human A549 cells assessed as growth inhibition after 48 hrs by MTT assay; format: cell-based; conditions: A549 cells
A549 = assay: as §2; format: cell-based; conditions: a549, 48 h
[16] = (§3) Cytotoxicity against human HCT116 cells assessed as growth inhibition after 48 hrs by MTT assay; format: cell-based, HCT-116; conditions: HCT116 cells
HCT-116 = assay: as §3; format: cell-based; conditions: hct-116, 48 h
Escherichia coli = assay: Antibacterial activity against Escherichia coli ATCC […] after 8 hrs; format: functional
Pseudomonas fluorescens = assay: Antibacterial activity against Pseudomonas fluorescens ATCC 13525 after 8 hrs; format: functional; conditions: ATCC 13525, 8 h
Staphylococcus aureus = assay: Antibacterial activity against Staphylococcus aureus ATCC 29213 after 12 hrs; format: functional; conditions: ATCC 29213, 12 h
Bacillus subtilis = assay: Antibacterial activity against Bacillus subtilis ATCC 23857 after 12 hrs; format: functional; conditions: ATCC 23857, 12 h

| SMILES | MIC50 [1] [µg/mL] | MIC90 [1] [µg/mL] | inhibition of growth at 30 µg/mL [2] [%] | inhibition of growth at 10 µg/mL [3] [%] | inhibition of growth at 3 µg/mL [4] [%] | inhibition at 48 h, 30 ug/ml [5] [%] | inhibition at 48 h, 10 ug/ml [6] [%] | inhibition at 48 h, 3 ug/ml [7] [%] | inhibition at 48 h, 30 ug/ml [8] [%] | inhibition at 48 h, 10 ug/ml [9] [%] | inhibition at 48 h, 3 ug/ml [10] [%] | inhibition at 48 h, 30 ug/ml [11] [%] | inhibition at 48 h, 10 ug/ml [12] [%] | inhibition at 48 h, 3 ug/ml [13] [%] | other results |
| --- | --- | --- | --- | --- | --- | --- | --- | --- | --- | --- | --- | --- | --- | --- | --- |
| Cc1ccc2nc(Cl)c(/C=C3\CNC/C(=C\c4cc5cc(C)ccc5nc4Cl)C3=O)cc2c1 | > 30 | > 30 | 34.4 | 28.5 | 9.9 | 14.2 | 17.7 | 0.9 | 0 | 0 | -18.7 | 21.8 | 16.3 | 5.5 | – |
| CN1C/C(=C\c2cc3cc(F)ccc3nc2Cl)C(=O)/C(=C/c2cc3cc(F)ccc3nc2Cl)C1 | > 30 | > 30 | 34.1 | 14.7 | 39.7 | 32.3 | -0.6 | 7.8 | 0 | 0 | 0 | 12.7 | 10.3 | -0.4 | – |
| COc1ccc2nc(Cl)c(/C=C3\CNC/C(=C\c4cc5cc(OC)ccc5nc4Cl)C3=O)cc2c1 | 12.1 (≈ 23.9 µM) | 27.9 (≈ 55.1 µM) | 95.4 | 44.7 | 31.2 | 27.4 | 32.5 | 4.7 | 0 | 0 | 0 | 0 | 0 | 0 | GI50 at 48 h [14]: 8.93 µg/mL (≈ 17.6 µM); GI90 (MCF7): > 100 µg/mL; GI50 at 48 h [15]: > 100 µg/mL; GI90 (A549): > 100 µg/mL; GI50 at 48 h [16]: 9.83 µg/mL (≈ 19.4 µM); GI90 (HCT-116): > 100 µg/mL; MIC50 (Escherichia coli): > 30 µg/mL; MIC90 (Escherichia coli): > 30 µg/mL; MIC50 (Pseudomonas fluorescens): > 30 µg/mL; MIC90 (Pseudomonas fluorescens): > 30 µg/mL; MIC50 (Staphylococcus aureus): > 30 µg/mL; MIC90 (Staphylococcus aureus): > 30 µg/mL; MIC50 (Bacillus subtilis): > 30 µg/mL; MIC90 (Bacillus subtilis): > 30 µg/mL |
| O=C1/C(=C/c2cc3cc(Cl)ccc3nc2Cl)CNC/C1=C\c1cc2cc(Cl)ccc2nc1Cl | 27.8 (≈ 54 µM) | > 30 | 53.8 | 24.5 | 23.7 | 50 | 22.8 | 14.3 | -12 | 0 | 2.3 | -14.5 | -22.2 | -18.3 | – |
| CC(=O)O[C@H]1C(=O)[C@@]2(C)[C@H]([C@H](OC(=O)c3ccccc3)[C@]3(O)C[C@H](OC(=O)[C@H](O)[C@@H](NC(=O)c4ccccc4)c4ccccc4)C(C)=C1C3(C)C)[C@]1(OC(C)=O)CO[C@@H]1C[C@@H]2O [PACLITAXEL] | – | – | – | – | – | – | – | – | – | – | – | – | – | – | GI90 (MCF7): 0.075 µg/mL (≈ 0.0878 µM); GI90 (A549): 0.0706 µg/mL (≈ 0.0827 µM); GI50 at 48 h [16]: 0.128 µg/mL (≈ 0.15 µM); GI90 (HCT-116): 5.715 µg/mL (≈ 6.69 µM) |
| Cc1cccc2cc(/C=C3\CN(C)C/C(=C\c4cc5cccc(C)c5nc4Cl)C3=O)c(Cl)nc12 | 27 (≈ 55.3 µM) | > 30 | 51.5 | 15.3 | 22.4 | 0 | 0 | 0 | -20.4 | 0 | -11 | 1.6 | 4.1 | -4.3 | – |
| NC[C@H]1O[C@H](O[C@H]2[C@H](O)[C@@H](O[C@H]3O[C@H](CO)[C@@H](O)[C@H](N)[C@H]3O)[C@H](N)C[C@@H]2N)[C@H](O)[C@@H](O)[C@@H]1O [KANAMYCIN] | – | – | – | – | – | – | – | – | – | – | – | – | – | – | MIC50 (Staphylococcus aureus): > 30 µg/mL; MIC90 (Staphylococcus aureus): 16 µg/mL (≈ 33 µM) |
| Cc1ccc2cc(/C=C3\CNC/C(=C\c4cc5ccc(C)cc5nc4Cl)C3=O)c(Cl)nc2c1 | 8.7 (≈ 18.3 µM) | 25.5 (≈ 53.8 µM) | 98.3 | 61.2 | 5.8 | 15.7 | 10.1 | -3.4 | 0 | -16.9 | 5.4 | 33.8 | 30.9 | 29.7 | GI50 at 48 h [14]: > 100 µg/mL; GI90 (MCF7): > 100 µg/mL; GI50 at 48 h [15]: > 100 µg/mL; GI90 (A549): > 100 µg/mL; GI50 at 48 h [16]: > 100 µg/mL; GI90 (HCT-116): > 100 µg/mL; MIC50 (Escherichia coli): > 30 µg/mL; MIC90 (Escherichia coli): > 30 µg/mL; MIC50 (Pseudomonas fluorescens): > 30 µg/mL; MIC90 (Pseudomonas fluorescens): > 30 µg/mL; MIC50 (Staphylococcus aureus): > 30 µg/mL; MIC90 (Staphylococcus aureus): > 30 µg/mL; MIC50 (Bacillus subtilis): > 30 µg/mL; MIC90 (Bacillus subtilis): > 30 µg/mL |
| Cc1cccc2cc(/C=C3\CNC/C(=C\c4cc5cccc(C)c5nc4Cl)C3=O)c(Cl)nc12 | > 30 | > 30 | 12.6 | 32.7 | 4.6 | 0 | 0 | 0 | -13.9 | 0 | 0 | 13.7 | 10.4 | 3.2 | – |
| O=C1/C(=C/c2cc3ccccc3nc2Cl)CNC/C1=C\c1cc2ccccc2nc1Cl | > 30 | > 30 | 33.3 | 43.6 | 9.6 | 26.3 | 23.2 | 22.2 | -14.1 | 0 | 0 | 0 | 0 | 0 | – |
| COc1ccc2nc(Cl)c(/C=C3\CN(C)C/C(=C\c4cc5cc(OC)ccc5nc4Cl)C3=O)cc2c1 | > 30 | > 30 | -0.8 | -5.8 | 52 | 39 | -7.4 | -7.1 | 0 | 0 | 0 | 10.2 | 12.2 | -2.1 | – |
| Cc1ccc2nc(Cl)c(/C=C3\CN(C)C/C(=C\c4cc5cc(C)ccc5nc4Cl)C3=O)cc2c1 | > 30 | > 30 | 36.8 | 15.6 | -18.6 | 44.8 | 18.7 | 1.7 | 0 | 0 | 0 | 16.5 | 10.5 | 12.5 | – |
